Measured values: patent publication US20230114241A1, “METHODS OF TREATING EPILEPSY USING THE SAME” (Trevena, Inc., priority 2019, published 2023)

Columns and labels:
[1] = target: T1, human sphingosine-1-phosphate receptor 1 (S1P1) (Homo sapiens, UniProt P21453); assay: Inhibition of cAMP production (HTRF cAMP HiRange), S1P1 CHO-K1 cells; type: cell-based; conditions: for Emax: CHO-K1, efficacy normalized to maximum efficacy of fingolimod, read-out: hS1P1 CAMP SPAN; for EC50: read-out: hS1P1 CAMP pEC50 (converted)
Method in brief: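 Intracellular cAMP changes read by TR-FRET (HTRF HiRange, 1 h room temperature) after 30 min compound exposure at 37 °C. Cells: overnight-plated CHO-K1 stably expressing tagged human S1P1 with EA-β-arrestin2. Responses normalized to fingolimod.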
Target sequence in this assay (P21453 whole entry): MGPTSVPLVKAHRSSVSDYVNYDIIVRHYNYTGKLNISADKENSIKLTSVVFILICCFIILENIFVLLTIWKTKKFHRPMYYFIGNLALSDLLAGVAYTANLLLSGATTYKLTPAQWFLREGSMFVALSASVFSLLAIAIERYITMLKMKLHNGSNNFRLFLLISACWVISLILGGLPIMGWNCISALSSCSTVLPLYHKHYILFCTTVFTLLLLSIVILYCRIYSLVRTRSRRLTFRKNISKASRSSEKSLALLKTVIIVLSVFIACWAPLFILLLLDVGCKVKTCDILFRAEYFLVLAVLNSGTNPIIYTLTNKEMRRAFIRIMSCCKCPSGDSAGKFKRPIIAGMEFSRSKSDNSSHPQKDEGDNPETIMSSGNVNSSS

[2] = target: T1, human sphingosine-1-phosphate receptor 1 (S1P1); assay: β-Arrestin2 recruitment assay (PathHunter), S1P1 CHO-K1 cells; type: cell-based; conditions: for Emax: efficacy normalized to maximum efficacy of fingolimod, read-out: hS1P1 B-arrestin2 SPAN; for EC50: β-arrestin2 recruitment, read-out: hS1P1 B-arrestin2 pEC50 (converted)
Method in brief: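 Agonist-driven β-arrestin2 recruitment measured by β-galactosidase complementation after 60 min compound exposure at 37 °C and 1 h detection at room temperature. Cells: stable CHO-K1 line expressing tagged human S1P1 with EA-β-arrestin2, plated the night before. Data expressed relative to fingolimod.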
Target sequence in this assay (P21453 whole entry): as above
Target sequence in this assay (P32121 whole entry partner): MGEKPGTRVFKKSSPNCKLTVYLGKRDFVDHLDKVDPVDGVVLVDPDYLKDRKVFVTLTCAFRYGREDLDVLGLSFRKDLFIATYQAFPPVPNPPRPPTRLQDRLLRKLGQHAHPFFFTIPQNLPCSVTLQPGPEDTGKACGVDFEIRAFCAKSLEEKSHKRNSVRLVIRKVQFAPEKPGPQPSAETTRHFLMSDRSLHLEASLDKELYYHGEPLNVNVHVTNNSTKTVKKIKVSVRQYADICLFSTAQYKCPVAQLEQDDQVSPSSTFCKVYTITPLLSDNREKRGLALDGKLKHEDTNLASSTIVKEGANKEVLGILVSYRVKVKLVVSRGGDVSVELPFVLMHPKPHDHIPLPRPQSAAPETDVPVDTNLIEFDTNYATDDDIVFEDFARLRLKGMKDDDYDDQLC

[3] = inhibition of cAMP production, S1P1
[4] = inhibition of cAMP production, potency
[5] = CHO-K1, β-arrestin2 recruitment

Compound | Emax [1] [%] | EC50 [1, 3] [µM] | Emax ([2]; CHO-K1) [%] | EC50 ([2]; S1P1) [µM] | Emax ([1]; inhibition of cAMP production) [%] | EC50 [1, 4] [µM] | Emax [2, 5] [%] | EC50 ([2]; potency) [µM]
COc1cccc(-c2csc(-c3ccc4c(ccn4C(C)C)n3)n2)c1 [Compound 410, 2-(1-isoproplpyrrolo[3,2-b]pyridin-5-yl)-4-(3-methoxyphenyl)thiazole] | < 75 | > 0.316 | < 75 | > 10 |  |  |  | 
COc1cc(-c2noc(-c3ccc4c(c3)nnn4C3CC3)n2)ccn1 [Compound 155, 1-cyclopropyl-5-[3-(2-methoxypyridin-4-yl)-1,2,4-oxadiazol-5-yl]-1H-1,2,3-benzotriazole] |  |  |  |  | < 75 | > 0.316 | < 75 | > 10
CCC1(CC)CC(=O)c2cc(-c3nc(-c4ccc(C(=O)N(C)C)cc4)no3)ccc2O1 [Compound 151, 4-(5-(2,2-diethyl-4-oxochroman-6-yl)-1,2,4-oxadiazol-3-yl)-N,N-dimethylbenzamide] |  |  |  |  | > 75 | > 0.316 | > 75 | > 10
COc1ccccc1-c1nsc(-c2ccc3c(c2)nnn3C(C)C)n1 [Compound 213, 5-[3-(2-methoxy-phenyl)-1,2,4-thiadiazol-5-yl]-1-(propan-2-yl)-1H-1,2,3-benzotriazole] |  |  |  |  | > 75 | > 0.316 | > 75 | > 10
CC(C)n1ccc2cc(-c3nc(-c4ccccc4C(F)(F)F)cs3)cnc21 [Compound 408, 2-(1-isopropylpyrrolo[2,3-b]pyridin-5-yl)-4-[2-(trifluoromethyl)phenyl] thiazole] | > 75 | > 0.316 | < 75 | > 10 |  |  |  | 
Cc1cccc(-c2noc(-c3ccc4c(c3)nnn4C3CCCCC3)n2)c1 [Compound 11, 1-cyclohexyl-5-[3-(3-methylphenyl)-1,2,4-oxadiazol-5-yl]-1H-1,2,3-benzotriazole] |  |  |  |  | < 75 | > 0.316 | < 75 | > 10
COc1cnc(-c2nc(-c3ccc4c(c3)nnn4C(C)C)no2)cn1 [Compound 51, 3-(1-isopropyl-1H-benzo[d][1,2,3]triazol-5-yl)-5-(5-methoxypyrazin-2-yl)-1,2,4-oxadiazole] |  |  |  |  | < 75 | > 0.316 | < 75 | > 10
CCC1(CC)CC(=O)c2cc(-c3nc(-c4ccc5nonc5c4)no3)ccc2O1 [Compound 500, 6-[3-(2,1,3-benzoxadiazol-5-yl)-1,2,4-oxadiazol-5-yl]-2,2-diethyl-3,4-dihydro-2H-1-benzopyran-4-one] | < 75 | > 0.316 | < 75 | > 10 |  |  |  | 
CC(C)Nc1ccc(-c2ncc(-c3ccc4[nH]c(=O)[nH]c4c3)cn2)cc1C#N [Compound 628, 2-(isopropylamino)-5-(5-(2-oxo-2,3-dihydro-1H-benzo[d]imidazol-5-yl)pyrimidin-2-yl)benzonitrile] | > 75 | < 0.316 | < 75 | < 10 |  |  |  | 
CC(C)Nc1ccc(-c2nnc(-c3ccc4[nH]c(=O)oc4c3)o2)cc1C#N [Compound 484, 5-[5-(2-oxo-2,3-dihydro-1,3-benzoxazol-6-yl)-1,3,4-oxadiazol-2-yl]-2-[(propan-2-yl)amino]benzonitrile] | > 75 | < 0.316 | > 75 | < 10 |  |  |  | 
COc1ccc(-c2nc(-c3ccc4c(c3)nnn4C3CCCC3)no2)cc1 [Compound 196, 3-(1-cyclopentyl-1H-benzo[d][1,2,3]triazol-5-yl)-5-(4-methoxyphenyl)-1,2,4-oxadiazole] |  |  |  |  | < 75 | > 0.316 | < 75 | > 10
CCC1(CC)CC(=O)c2cc(-c3nc(-c4ccc(S(=O)(=O)NC)cc4)no3)ccc2O1 [Compound 266, 4-(5-(2,2-diethyl-4-oxochroman-6-yl)-1,2,4-oxadiazol-3-yl)-N-methylbenzene-sulfonamide] |  |  |  |  | > 75 | > 0.316 | > 75 | < 10
COC(=O)CCn1nnc2cc(-c3noc(-c4ccccc4Br)n3)ccc21 [Compound 161, methyl 3-(5-(5-(2-bromophenyl)-1,2,4-oxadiazol-3-yl)-1H-benzo[d][1,2,3]triazol-1-yl)propanoate] |  |  |  |  | < 75 | > 0.316 | > 75 | > 10
CCC1(CC)CC(=O)c2cc(-c3noc(-c4ccc(NC(C)C)c(C#N)c4)n3)ccc2O1 [Compound 443, 5-(3-(2,2-diethyl-4-oxochroman-6-y)-1,2,4-oxadiazol-5-yl)-2-(isopropyl-amino)benzonitrile] | > 75 | < 0.316 | < 75 | < 10 |  |  |  | 
Cc1ccsc1-c1noc(-c2ccc3c(c2)nnn3C2CCCC2)n1 [Compound 46, 1-cyclopentyl-5-[3-(3-methylthiophen-2-yl)-1,2,4-oxadiazol-5-yl]-1H-1,2,3-benzotriazole] |  |  |  |  | > 75 | < 0.316 | > 75 | < 10
CCC1(CC)CC(=O)c2cc(-c3nc(-c4sccc4OC)no3)ccc2O1 [Compound 604, 2,2-diethyl-6-(3-(3-methoxythiophen-2-yl)-1,2,4-oxadiazol-5-yl)chroman-4-one] | > 75 | < 0.316 | > 75 | < 10 |  |  |  | 
CC(C)n1nnc2cc(-c3ncc(-c4ccc(F)cc4)s3)ccc21 [Compound 37, 5-(4-fluorophenyl)-2-(1-isopropyl-benzotriazol-5-yl)thiazole] |  |  |  |  | < 75 | > 0.316 | < 75 | > 10
CCC1(CC)CC(=O)c2cc(-c3nc(-c4ccc(C(F)(F)F)nc4)no3)ccc2O1 [Compound 548, 2,2-diethyl-6-(3-(6-(trifluoromethyl)pyridin-3-yl)-1,2,4-oxadiazol-5-yl)chroman-4-one] | < 75 | > 0.316 | < 75 | > 10 |  |  |  | 
CC1CC(=O)c2ccc(-c3nc(-c4cccnc4)no3)cc2O1 (centres unmarked) [Compound 535, 2-methyl-7-[3-(pyridin-3-yl)-1,2,4-oxadiazol-5-yl]-3,4-dihydro-2H-1-benzopyran-4-one] | < 75 | > 0.316 | < 75 | < 10 |  |  |  | 
O=C1CC(CO)(CO)Oc2ccc(-c3nc(-c4cccnc4)no3)cc21 [Compound 478, 2,2-bis(hydroxymethyl)-6-[3-(pyridin-3-yl)-1,2,4-oxadiazol-5-yl]-3,4-dihydro-2H-1-benzopyran-4-one] | < 75 | > 0.316 | < 75 | > 10 |  |  |  | 
CC(C)n1ccc2cc(-c3nc(-c4ccccc4F)ns3)ccc21 [Compound 374, 5-[3-(2-fluorophenyl)-1,2,4-thiadiazol-5-yl]-1-(propan-2-yl)-1H-indole] | < 75 | > 0.316 | < 75 | > 10 |  |  |  | 
CC(C)n1nnc2cc(-c3nc(-c4cccnc4)no3)ccc21 [Compound 165, 1-(propan-2-yl)-5-[3-(pyridin-3-yl)-1,2,4-oxadiazol-5-yl]-1H-1,2,3-benzotriazole] |  |  |  |  | > 75 | > 0.316 | > 75 | > 10
CC(C)n1nnc2cc(-c3nc(-c4ccccc4Br)no3)cnc21 [Compound 413, 3-(2-bromophenyl)-5-[3-(propan-2-yl)-3H-[1,2,3]triazolo[4,5-b]pyridin-6-yl]-1,2,4-oxadiazole] | < 75 | < 0.316 | > 75 | < 10 |  |  |  | 
CC(C)n1nnc2cc(-c3noc(-c4cccc(COc5ccccc5)c4)n3)ccc21 [Compound 23, 3-(1-isopropyl-1H-benzo[d][1,2,3]triazol-5-yl)-5-(3-(phenoxy-methyl)phenyl)-1,2,4-oxadiazole] |  |  |  |  | < 75 | > 0.316 | < 75 | > 10
CCC1(CC)CC(=O)c2cc(-c3nc(-c4ccc5c(c4)CCC(=O)N5)no3)ccc2O1 [Compound 415, 6-(5-(2,2-diethyl-4-oxochroman-6-yl)-1,2,4-oxadiazol-3-yl)-3,4-dihydroquinolin-2(1H)-one] | < 75 | < 0.316 | > 75 | > 10 |  |  |  | 
COc1ccccc1-c1nnc(-c2ccc3c(c2)c(=O)on3C)o1 [Compound 340, 5-[5-(2-methoxyphenyl)-1,3,4-oxadiazol-2-yl]-1-methyl-1,3-dihydro-2,1-benzoxazol-3-one] |  |  |  |  | < 75 | > 0.316 | < 75 | > 10
